According to patent EP2276483B1, “SOLID FORMS COMPRISING (+)-2-[1-(3-ETHOXY-4-METHOXYPHENYL)-2-METHYLSULFONYLETHYL]-4-ACETYLAMINOISOINDOLINE-1,3-DIONE, COMPOSITIONS THEREOF, AND USES THEREOF” (CELGENE CORPORATION, priority 2008, dated 2009):

Key:
[1] = biological target: PDE7 purified from Hut78 human T cells (Homo sapiens, UniProt Q13946); test: PDE7 enzyme assay; type: biochemical
Procedure: PDE7 is a cAMP-selective PDE expressed mainly in T cells and in skeletal muscle. T cell-derived cytokines such as IL-2 and IFN-γ are potentially regulatable via PDE7 inhibition. […] Compounds were tested against the PDE7 preparation in the presence of 10 nM cAMP as described for PDE4 in Table 1.

[2] = tested on: subjects with moderate to severe plaque-type psoriasis; test: Phase 2 randomized double-blind placebo-controlled study in moderate to severe plaque-type psoriasis; type: in vivo, human
Procedure: This phase 2, multicenter, randomized, double-blind, placebo-controlled, parallel-group, dose-comparison study evaluated the efficacy and safety of Compound A in subjects with moderate to severe plaque-type psoriasis who were candidates for systemic therapy.
This study included a 12-week treatment phase followed by a 4-week observational follow-up phase. A total of 260 subjects were randomized to receive Compound A 20 mg BID, Compound A 20 mg QD, or placebo for 12 weeks. The primary endpoint for this study was the proportion of subjects treated with Compound A who achieved a 75% reduction in Psoriasis Area and Severity Index score ("PASI-75") at week 12/last treatment in reference to the baseline visit. Last treatment is defined as the last PASI assessment completed during the 12-week treatment phase.

bovine PDE1 = test: PDE1 enzyme assay; type: biochemical
[3] = biological target: PDE3 from human platelets (Homo sapiens, UniProt Q14432); test: PDE3 enzyme assay; type: biochemical
PDE3 from human platelets, sequence (Q14432 whole entry): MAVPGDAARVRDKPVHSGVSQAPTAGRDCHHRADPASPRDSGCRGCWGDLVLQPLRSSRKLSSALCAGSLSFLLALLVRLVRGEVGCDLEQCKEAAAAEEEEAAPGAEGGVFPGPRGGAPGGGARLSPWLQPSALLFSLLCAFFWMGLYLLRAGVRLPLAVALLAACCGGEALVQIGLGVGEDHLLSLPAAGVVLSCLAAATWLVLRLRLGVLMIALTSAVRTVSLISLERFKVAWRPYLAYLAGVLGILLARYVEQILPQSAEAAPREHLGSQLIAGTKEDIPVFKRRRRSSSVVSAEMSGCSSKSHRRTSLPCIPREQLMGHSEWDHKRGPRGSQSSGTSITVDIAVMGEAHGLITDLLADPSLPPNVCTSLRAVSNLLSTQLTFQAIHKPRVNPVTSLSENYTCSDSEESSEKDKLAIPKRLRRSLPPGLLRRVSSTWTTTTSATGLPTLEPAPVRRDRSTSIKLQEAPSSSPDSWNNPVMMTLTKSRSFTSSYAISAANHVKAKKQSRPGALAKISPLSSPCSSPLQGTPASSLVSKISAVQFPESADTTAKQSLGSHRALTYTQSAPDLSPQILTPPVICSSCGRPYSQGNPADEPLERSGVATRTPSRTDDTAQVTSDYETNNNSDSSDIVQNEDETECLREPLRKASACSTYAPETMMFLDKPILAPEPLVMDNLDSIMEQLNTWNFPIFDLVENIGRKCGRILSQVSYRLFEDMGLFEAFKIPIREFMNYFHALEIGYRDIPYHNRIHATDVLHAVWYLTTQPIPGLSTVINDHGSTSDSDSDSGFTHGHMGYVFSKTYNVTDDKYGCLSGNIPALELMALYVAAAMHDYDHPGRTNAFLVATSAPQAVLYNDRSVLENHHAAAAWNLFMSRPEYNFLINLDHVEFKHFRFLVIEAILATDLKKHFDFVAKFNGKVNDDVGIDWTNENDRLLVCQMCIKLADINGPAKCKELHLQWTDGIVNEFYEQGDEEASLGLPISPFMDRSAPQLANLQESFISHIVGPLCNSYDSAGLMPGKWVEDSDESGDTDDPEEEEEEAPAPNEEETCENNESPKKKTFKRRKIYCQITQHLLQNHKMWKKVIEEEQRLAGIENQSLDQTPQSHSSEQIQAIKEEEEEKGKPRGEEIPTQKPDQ

cAMP = test: PGE2-induced cAMP elevation in human PBMC; type: cell-based; settings: PGE2 (10µM)
Procedure: Prostaglandin E2 (PGE2) binds to prostanoid receptors on monocytes, T cells and other leukocytes and consequently elevates intracellular cAMP levels, resulting in inhibition of cellular responses. The combination of PGE2 and a PDE4 inhibitor synergistically elevates cAMP levels in these cell types, and the elevation of cAMP in PBMC caused by PDE4 inhibitors in the presence of PGE2 is proportional to the inhibitory activity of that PDE4 inhibitor. Intracellular cAMP was measured in human PBMC as follows. PBMC were isolated as described above and plated in 96-well plates at 1 x 10^6 cells per well in RPMI-1640. The cells were pre-treated with compounds at 100, 10, 1, 0.1, 0.01, and 0 µM in a final concentration of 2% DMSO in duplicate at 37°C in a humidified incubator at 5% CO2 for one hour. The cells were then stimulated with PGE2 (10µM) (Sigma) for 1h. The cells were lysed with HCl, 0.1 N final concentration to inhibit phosphodiesterase activity and the plates were frozen at -20°C. The cAMP produced was measured using cAMP (low pH) Immunoassay kit (R&D Systems).

[4] = biological target: T1, PDE5 from human platelets (Homo sapiens, UniProt O76074); test: PDE5 enzyme assay; type: biochemical
T1 construct: PDE5 from human platelets; from tissue; host or cells: human platelets

[5] = tested on: LPS-induced pulmonary neutrophilia; test: LPS-induced lung neutrophilia ferret model; type: in vivo, ferrets (Mustela Pulorius Euro); settings: Mustela putorius, po; conscious ferret, p.o.; read-out: Inhibition of LPS-induced neutrophilia (ED50 mg/kg)
From the text: The conscious ferret model has been used to investigate anti-inflammatory, emetic and behavioral effects of PDE4 inhibitors when administered by the oral (p.o.) route. From these experiments, a therapeutic index (TI) for each PDE4 inhibitor may be determined. The TI has been calculated by dividing the threshold dose for causing emetic episodes and behavioral changes by the anti-inflammatory dose (dose that causes 50% inhibition of the LPS-induced neutrophilia).
Male ferrets (Mustela Pulorius Euro, weighing 1 - 2 kg). Ferrets were supplied either by Bury Green Farm or Misay Consultancy. Following transport, the animals were allowed to acclimatize in the holding rooms for a period of not less than seven days. The diet comprised SDS diet C pelleted food given ad lib with Whiskers™ cat food given three times per week. Water was pasteurized animal grade drinking water and was changed daily. […]
Thirty minutes after p.o. dosing with compound or vehicle control, the ferrets were placed into sealed Perspex containers and exposed to an aerosol of LPS (100 µg/ml) for 10 minutes. […] Observation continued for a period of at least 2.5 hours post p.o. dosing and emetic episodes and behavioral changes were recorded. […]
The bronchoalveolar lavage (BAL) samples were centrifuged at 1,500 rpm for 5 minutes. […] From this, the total number of neutrophils in the BAL was determined. […]

human PDE2 = human PDE2 (Homo sapiens, UniProt O00408); test: PDE2 enzyme assay; type: biochemical
human PDE2, sequence (O00408 whole entry): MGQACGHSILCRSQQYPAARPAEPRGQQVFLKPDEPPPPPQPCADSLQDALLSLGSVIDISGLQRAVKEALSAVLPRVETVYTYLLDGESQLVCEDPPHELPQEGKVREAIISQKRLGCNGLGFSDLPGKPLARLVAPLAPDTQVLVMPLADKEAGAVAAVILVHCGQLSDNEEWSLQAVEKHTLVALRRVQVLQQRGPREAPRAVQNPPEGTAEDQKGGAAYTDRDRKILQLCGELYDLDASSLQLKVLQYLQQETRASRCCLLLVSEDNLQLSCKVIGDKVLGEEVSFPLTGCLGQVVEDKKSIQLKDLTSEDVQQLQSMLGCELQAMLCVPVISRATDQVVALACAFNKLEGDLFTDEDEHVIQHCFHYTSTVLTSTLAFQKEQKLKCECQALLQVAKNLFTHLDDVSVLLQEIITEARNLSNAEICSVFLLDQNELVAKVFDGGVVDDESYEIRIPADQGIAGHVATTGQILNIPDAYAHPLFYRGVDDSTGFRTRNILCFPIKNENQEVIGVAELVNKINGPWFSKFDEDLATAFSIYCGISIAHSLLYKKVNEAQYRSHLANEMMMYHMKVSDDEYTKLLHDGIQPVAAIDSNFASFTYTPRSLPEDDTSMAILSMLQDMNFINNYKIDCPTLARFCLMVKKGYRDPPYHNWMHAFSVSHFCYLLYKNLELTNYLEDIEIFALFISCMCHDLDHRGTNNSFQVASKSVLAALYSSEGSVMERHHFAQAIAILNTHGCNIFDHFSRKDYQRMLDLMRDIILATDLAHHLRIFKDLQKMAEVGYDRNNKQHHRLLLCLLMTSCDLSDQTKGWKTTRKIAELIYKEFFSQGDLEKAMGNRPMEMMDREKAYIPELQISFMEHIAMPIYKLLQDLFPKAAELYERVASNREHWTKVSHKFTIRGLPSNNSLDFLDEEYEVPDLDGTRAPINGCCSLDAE

[6] = 20 mg BID, week 12/last treatment

PDE7 purified from Hut78 human T cells, sequence (Q13946 whole entry): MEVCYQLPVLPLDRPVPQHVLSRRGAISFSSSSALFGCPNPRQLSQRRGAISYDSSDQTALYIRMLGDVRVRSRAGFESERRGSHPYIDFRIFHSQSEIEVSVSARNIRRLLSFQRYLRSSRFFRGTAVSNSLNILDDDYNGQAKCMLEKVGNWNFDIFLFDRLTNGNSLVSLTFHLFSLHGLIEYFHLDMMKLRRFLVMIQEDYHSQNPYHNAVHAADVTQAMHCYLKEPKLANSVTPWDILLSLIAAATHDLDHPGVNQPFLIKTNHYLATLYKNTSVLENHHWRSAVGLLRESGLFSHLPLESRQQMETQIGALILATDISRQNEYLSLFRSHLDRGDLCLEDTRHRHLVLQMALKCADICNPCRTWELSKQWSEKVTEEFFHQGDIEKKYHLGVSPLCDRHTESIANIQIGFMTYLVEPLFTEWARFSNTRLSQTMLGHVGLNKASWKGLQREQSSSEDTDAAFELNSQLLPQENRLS

CCOc1cc(C(CS(C)(=O)=O)N2C(=O)c3cccc(NC(C)=O)c3C2=O)ccc1OC (single isomer, unassigned; (+)) [Compound A, (+)-2-[1-(3-ethoxy-4-methoxyphenyl)-2-methylsulfonylethyl]-4-acetylaminoisoindoline-1,3-dione]
IC50 ([1]; 10 nM cAMP): 20.5 µM
PDE Specificity Ratio PDE7 IC50/PDE4 IC50 ([1]; from above data): 279 fold
study drug-related serious adverse events ([2]; 20 mg BID or 20 mg QD for 12 weeks): No study drug-related serious adverse events
mean decrease in PASI from baseline [2, 6]: 52%
proportion of subjects who achieved PASI-50 [2, 6]: 57%
proportion of subjects who achieved PASI-90 [2, 6]: 14%
proportion of subjects who achieved a PASI-75 ([2]; 20 mg BID, week 12/last treatment, P=0.023 vs placebo): 24%
tolerability and safety ([2]; 12 weeks of treatment): well tolerated and safe
PDE1 (% inhib at 10 µM) (bovine PDE1; 10 µM): 23%
PDE Specificity Ratio PDE4/PDE1 (bovine PDE1; from above data): >500 fold
PDE Specificity Ratio PDE4/PDE3 ([3]; from above data): >1200 fold
inhibition at 10 µM ([3]; read-out: PDE3 (% inhib at 10 µM)): 20%
EC50 (cAMP): 1.58 µM
PDE Specificity Ratio PDE4/PDE5 ([4]; from above data): >30000 fold
inhibition at 10 µM ([4]; read-out: PDE5 (% inhib at 10 µM)): 3%
ED50 [5]: 0.8 mg/kg
PDE Specificity Ratio PDE4/PDE2 (human PDE2; from above data): >10000 fold
inhibition at 10 µM (human PDE2; read-out: PDE2(% inhib at 10 µM)): 6%
